From patent US12258328B2, “6-membered heteroaryl-containing aminopyridine compounds as EGFR inhibitors” (YUHAN CORPORATION, priority 2021, dated 2025)
Like-named read-outs stand apart in the source and are kept apart here.

Assays:
[1] = molecular target: EGFR wildtype (Homo sapiens, UniProt P00533); assay: Biochemical EGFR kinase assay (Lance Ultra TR-FRET), wildtype
Outline: (§1)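 In this biochemical assay, phosphorylation after a one-hour room-temperature reaction was detected with europium-labelled anti-phosphopeptide antibody at 2 nM final concentration.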

[2] = molecular target: EGFR L858R/T790M/C797S (Homo sapiens, UniProt P00533, C797S/L858R/T790M); assay: Biochemical EGFR kinase assay (Lance Ultra TR-FRET), triple mutant L858R/T790M/C797S
Outline: as §1

[3] = molecular target: EGFR L858R/C797S (Homo sapiens, UniProt P00533, C797S/L858R); assay: Biochemical EGFR kinase assay (Lance Ultra TR-FRET), double mutant L858R/C797S
Outline: as §1

[4] = molecular target: EGFR del19/C797S (Homo sapiens, UniProt P00533, C797S/DEL746-750); assay: Biochemical EGFR kinase assay (Lance Ultra TR-FRET), double mutant del19/C797S
Outline: as §1

[5] = molecular target: EGFR del19/T790M/C797S (Homo sapiens, UniProt P00533, C797S/DEL746-750/T790M); assay: Biochemical EGFR kinase assay (Lance Ultra TR-FRET), triple mutant del19/T790M/C797S
Outline: as §1

[6] = IC50 WT (nM) 100 μM ATP, 100 μM ATP
[7] = Km ATP, read-out: IC50 WT (nM) Km ATP
[8] = IC50 L858R/T790M/C797S (nM) 100 μM ATP, 100 μM ATP
[9] = Km ATP, read-out: IC50 L858R/T790M/C797S (nM) Km ATP
[10] = IC50 L858R/C797S (nM) 100 μM ATP, 100 μM ATP
[11] = Km ATP, read-out: IC50 L858R/C797S (nM) Km ATP
[12] = IC50 del19/C797S (nM) 100 μM ATP, 100 μM ATP
[13] = Km ATP, read-out: IC50 del19/C797S (nM) Km ATP
[14] = IC50 del19/T790M/C797S (nM) 100 μM ATP, 100 μM ATP
[15] = Km ATP, read-out: IC50 del19/T790M/C797S (nM) Km ATP

EGFR del19/T790M/C797S, sequence (P00533 with tags, fused parts or gaps DEL746-750/T790M/C797S): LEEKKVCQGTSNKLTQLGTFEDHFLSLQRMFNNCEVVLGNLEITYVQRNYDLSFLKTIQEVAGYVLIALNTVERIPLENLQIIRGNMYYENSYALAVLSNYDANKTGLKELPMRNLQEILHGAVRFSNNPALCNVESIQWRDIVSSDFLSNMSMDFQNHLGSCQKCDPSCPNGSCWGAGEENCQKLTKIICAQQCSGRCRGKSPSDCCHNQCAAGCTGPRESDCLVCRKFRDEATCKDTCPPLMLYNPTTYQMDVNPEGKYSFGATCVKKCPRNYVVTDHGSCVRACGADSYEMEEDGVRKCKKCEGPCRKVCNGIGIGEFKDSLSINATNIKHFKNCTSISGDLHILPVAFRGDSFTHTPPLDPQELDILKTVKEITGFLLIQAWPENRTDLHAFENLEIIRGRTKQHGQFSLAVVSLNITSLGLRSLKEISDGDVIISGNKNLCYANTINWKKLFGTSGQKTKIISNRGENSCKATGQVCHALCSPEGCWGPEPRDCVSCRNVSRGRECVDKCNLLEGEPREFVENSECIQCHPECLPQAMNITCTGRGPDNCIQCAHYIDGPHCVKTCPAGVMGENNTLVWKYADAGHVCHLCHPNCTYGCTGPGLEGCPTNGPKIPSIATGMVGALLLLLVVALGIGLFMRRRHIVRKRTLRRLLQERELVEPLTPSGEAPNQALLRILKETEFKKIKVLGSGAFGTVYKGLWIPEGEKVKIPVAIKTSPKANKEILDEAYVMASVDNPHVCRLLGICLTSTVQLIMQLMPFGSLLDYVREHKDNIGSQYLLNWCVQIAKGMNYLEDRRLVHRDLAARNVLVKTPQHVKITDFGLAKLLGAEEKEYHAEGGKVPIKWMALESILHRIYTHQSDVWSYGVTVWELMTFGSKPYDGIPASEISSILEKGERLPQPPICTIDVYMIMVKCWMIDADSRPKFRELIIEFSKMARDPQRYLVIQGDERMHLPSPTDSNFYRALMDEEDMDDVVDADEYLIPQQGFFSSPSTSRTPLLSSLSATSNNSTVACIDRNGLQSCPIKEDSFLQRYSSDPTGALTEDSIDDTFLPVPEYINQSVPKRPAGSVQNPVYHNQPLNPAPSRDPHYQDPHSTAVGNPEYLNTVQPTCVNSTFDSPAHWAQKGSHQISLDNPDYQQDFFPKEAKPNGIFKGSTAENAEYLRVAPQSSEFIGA
EGFR wildtype, sequence (P00533 25-1210): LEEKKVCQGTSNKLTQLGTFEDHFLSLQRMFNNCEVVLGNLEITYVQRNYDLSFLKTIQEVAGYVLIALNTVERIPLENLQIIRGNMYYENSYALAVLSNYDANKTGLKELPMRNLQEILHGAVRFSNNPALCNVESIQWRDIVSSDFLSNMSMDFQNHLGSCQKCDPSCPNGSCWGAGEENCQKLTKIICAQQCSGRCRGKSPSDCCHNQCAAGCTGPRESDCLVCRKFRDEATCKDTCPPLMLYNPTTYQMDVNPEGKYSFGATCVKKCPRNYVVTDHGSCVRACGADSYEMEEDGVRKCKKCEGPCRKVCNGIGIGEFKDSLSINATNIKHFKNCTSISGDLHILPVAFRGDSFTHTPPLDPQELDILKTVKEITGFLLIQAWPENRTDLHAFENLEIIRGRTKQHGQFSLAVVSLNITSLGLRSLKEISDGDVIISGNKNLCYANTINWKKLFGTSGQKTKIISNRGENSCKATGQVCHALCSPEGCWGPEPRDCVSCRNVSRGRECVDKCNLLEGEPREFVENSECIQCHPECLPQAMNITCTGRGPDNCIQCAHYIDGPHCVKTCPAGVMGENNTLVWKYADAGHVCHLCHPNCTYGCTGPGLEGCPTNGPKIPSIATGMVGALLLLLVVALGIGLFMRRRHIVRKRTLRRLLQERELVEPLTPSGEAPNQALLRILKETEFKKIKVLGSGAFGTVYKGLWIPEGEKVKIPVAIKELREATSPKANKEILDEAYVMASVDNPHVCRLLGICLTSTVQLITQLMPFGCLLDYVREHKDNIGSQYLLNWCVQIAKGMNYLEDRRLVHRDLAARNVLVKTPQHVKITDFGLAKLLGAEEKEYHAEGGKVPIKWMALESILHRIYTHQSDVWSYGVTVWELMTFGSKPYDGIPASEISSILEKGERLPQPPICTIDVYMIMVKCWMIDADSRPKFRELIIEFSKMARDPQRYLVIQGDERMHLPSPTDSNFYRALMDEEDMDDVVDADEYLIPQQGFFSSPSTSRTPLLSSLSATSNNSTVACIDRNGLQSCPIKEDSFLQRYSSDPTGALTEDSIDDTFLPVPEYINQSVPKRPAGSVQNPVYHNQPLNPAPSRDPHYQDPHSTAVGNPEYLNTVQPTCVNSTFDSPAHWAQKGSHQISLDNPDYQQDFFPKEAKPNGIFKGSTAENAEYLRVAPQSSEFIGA
EGFR L858R/C797S, sequence (P00533 25-1210 C797S/L858R): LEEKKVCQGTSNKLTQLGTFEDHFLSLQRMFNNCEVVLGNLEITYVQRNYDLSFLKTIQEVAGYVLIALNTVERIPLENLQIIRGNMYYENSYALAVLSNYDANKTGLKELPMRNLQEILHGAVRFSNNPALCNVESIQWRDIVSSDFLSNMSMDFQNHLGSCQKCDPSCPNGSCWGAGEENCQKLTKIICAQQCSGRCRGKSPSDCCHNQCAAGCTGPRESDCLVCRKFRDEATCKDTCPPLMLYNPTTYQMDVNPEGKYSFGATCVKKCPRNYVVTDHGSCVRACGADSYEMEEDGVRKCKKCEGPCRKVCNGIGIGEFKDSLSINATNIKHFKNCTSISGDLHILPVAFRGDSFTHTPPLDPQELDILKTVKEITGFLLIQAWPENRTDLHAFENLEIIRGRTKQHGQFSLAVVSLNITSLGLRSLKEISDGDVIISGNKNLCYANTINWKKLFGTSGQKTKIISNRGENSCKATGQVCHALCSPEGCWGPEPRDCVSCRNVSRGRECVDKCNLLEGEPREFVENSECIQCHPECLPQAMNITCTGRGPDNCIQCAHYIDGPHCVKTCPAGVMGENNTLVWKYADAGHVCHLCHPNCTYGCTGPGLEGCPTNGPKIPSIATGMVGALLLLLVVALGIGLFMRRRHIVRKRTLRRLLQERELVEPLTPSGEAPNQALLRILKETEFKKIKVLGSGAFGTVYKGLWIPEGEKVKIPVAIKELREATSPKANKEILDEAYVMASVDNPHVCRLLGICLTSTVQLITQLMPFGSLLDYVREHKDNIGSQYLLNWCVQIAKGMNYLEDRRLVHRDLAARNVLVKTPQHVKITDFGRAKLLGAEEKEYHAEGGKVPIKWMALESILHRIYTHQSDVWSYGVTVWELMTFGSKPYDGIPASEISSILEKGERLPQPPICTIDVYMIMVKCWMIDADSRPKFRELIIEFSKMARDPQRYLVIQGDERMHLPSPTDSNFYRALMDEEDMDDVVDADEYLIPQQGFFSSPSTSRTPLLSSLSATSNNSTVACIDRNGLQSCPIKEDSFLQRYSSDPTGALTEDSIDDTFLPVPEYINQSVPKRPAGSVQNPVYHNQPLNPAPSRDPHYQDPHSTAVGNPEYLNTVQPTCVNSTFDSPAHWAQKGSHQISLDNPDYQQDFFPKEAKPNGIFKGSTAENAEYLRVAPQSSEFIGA
EGFR L858R/T790M/C797S, sequence (P00533 25-1210 T790M/C797S/L858R): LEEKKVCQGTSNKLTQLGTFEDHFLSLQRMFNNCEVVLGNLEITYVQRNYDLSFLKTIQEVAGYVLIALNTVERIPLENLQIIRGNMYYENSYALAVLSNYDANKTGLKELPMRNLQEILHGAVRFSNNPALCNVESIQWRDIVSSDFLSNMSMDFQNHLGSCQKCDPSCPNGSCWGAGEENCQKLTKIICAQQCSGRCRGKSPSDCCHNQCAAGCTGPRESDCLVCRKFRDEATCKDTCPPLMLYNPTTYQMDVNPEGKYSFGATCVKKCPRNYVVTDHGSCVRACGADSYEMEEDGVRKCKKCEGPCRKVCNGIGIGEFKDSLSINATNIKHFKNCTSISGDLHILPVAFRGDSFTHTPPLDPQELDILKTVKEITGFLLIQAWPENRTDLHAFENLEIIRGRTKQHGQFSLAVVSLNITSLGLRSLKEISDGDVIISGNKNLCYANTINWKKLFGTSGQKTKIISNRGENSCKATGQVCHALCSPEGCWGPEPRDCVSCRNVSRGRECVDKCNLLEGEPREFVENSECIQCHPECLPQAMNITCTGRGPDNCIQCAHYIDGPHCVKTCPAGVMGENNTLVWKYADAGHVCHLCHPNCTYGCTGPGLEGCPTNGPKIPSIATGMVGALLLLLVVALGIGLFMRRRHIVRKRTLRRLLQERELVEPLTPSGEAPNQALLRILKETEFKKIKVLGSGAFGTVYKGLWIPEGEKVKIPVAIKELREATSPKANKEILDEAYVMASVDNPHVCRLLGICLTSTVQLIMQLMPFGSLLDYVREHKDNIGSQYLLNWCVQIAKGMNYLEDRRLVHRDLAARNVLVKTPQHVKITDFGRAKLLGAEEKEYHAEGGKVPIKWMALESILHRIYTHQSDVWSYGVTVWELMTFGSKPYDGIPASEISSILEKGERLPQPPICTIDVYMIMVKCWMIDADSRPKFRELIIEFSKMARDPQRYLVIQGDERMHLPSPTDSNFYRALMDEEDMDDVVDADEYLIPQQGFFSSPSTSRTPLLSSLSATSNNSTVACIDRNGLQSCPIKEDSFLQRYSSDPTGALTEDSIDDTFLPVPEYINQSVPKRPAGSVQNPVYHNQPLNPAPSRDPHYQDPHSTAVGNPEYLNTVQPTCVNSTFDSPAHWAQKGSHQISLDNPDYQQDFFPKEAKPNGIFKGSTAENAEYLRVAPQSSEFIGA

SMILES | IC50 [1, 6] [nM] | IC50 [1, 7] [nM] | IC50 [2, 8] [nM] | IC50 [2, 9] [nM] | IC50 [3, 10] [nM] | IC50 [3, 11] [nM] | IC50 [4, 12] [nM] | IC50 [4, 13] [nM] | IC50 [5, 14] [nM] | IC50 [5, 15] [nM]
O=S(=O)(C1CC1)n1cc(-c2nccc(Nc3cc(N[C@H]4CC[C@@H](CCO)CC4)c(-c4cc(C(F)F)ccn4)cn3)n2)cn1 [Example 97, 2-((1s,4s)-4-((6′-((2-(1-(Cyclopropylsulfonyl)-1H-pyrazol-4-yl)pyrimidin-4-yl)amino)-4-(difluoromethyl)-[2,3′-bipyridin]-4′-yl)amino)cyclohexyl)ethan-1-ol] | > 10000 | 7.4 | 1 | 0.5 | 52.6 | 2 | 6 | 2.3 | 2.2 | 2.1
CC(C)(O)[C@H]1CC[C@@H](Nc2cc(Nc3ccnc(-c4cnn(S(=O)(=O)C5CC5)c4)n3)ncc2-c2ccc(CN3CCC(O)CC3)cn2)CC1 [Example 98, 1-((6′-((2-(1-(Cyclopropylsulfonyl)-1H-pyrazol-4-yl)pyrimidin-4-yl)amino)-4′-(((1s,4s)-4-(2-hydroxypropan-2-yl)cyclohexyl)amino)-[2,3′-bipyridin]-5-yl)methyl) piperidin-4-ol] | 152 | – | 0.2 | 0.1 | 1.9 | – | 0.3 | – | 0.5 | 0.4
O=S(=O)(C1CC1)n1cc(-c2nccc(Nc3cc(N[C@H]4CC[C@@H](CO)CC4)c(-c4cc(N5CCC(F)(F)CC5)ccn4)cn3)n2)cn1 [Example 100, ((1s,4s)-4-((6′-((2-(1-(Cyclopropylsulfonyl)-1H-pyrazol-4-yl)pyrimidin-4-yl)amino)-4-(4,4-difluoropiperidin-1-yl)-[2,3′-bipyridin]-4′-yl)amino)cyclohexyl)methanol] | 7220 | 12.7 | 5.3 | 1.3 | 24.9 | 12.9 | 10.8 | 6.5 | 8.1 | 6.4
CC(C)(O)[C@H]1CC[C@@H](Nc2cc(Nc3ccnc(-c4cnn(S(=O)(=O)C5CC5)c4)n3)ncc2-c2cc(N3CCC(F)(F)CC3)ccn2)CC1 [Example 103, 2-((1s,4s)-4-((6′-((2-(1-(Cyclopropylsulfonyl)-1H-pyrazol-4-yl)pyrimidin-4-yl)amino)-4-(4,4-difluoropiperidin-1-yl)-[2,3′-bipyridin]-4′-yl)amino)cyclohexyl)propan-2-ol] | > 10000 | – | 3.9 | – | 654 | – | 66.5 | – | 6.6 | –
CC(C)(O)c1cc(-c2cnc(Nc3ccnc(-c4cnn(S(=O)(=O)C5CC5)c4)n3)cc2N[C@H]2CC[C@@](C)(O)CC2)ncc1F [Example 104, (1s,4s)-4-((6′-((2-(1-(Cyclopropylsulfonyl)-1H-pyrazol-4-yl)pyrimidin-4-yl)amino)-5-fluoro-4-(2-hydroxypropan-2-yl)-[2,3′-bipyridin]-4′-yl)amino)-1-methylcyclohexan-1-ol] | > 10000 | 21.9 | 0.8 | 0.6 | 21.6 | 0.9 | 3.1 | 2.2 | 1.8 | 1.1
CC(C)(O)c1cc(-c2cnc(Nc3ccnc(-c4cnn(S(=O)(=O)C5CC5)c4)n3)cc2N[C@H]2CC[C@@H](CO)CC2)ncc1F [Example 105, 2-(6′-((2-(1-(Cyclopropylsulfonyl)-1H-pyrazol-4-yl)pyrimidin-4-yl)amino)-5-fluoro-4′-(((1s,4s)-4-(hydroxymethyl)cyclohexyl)amino)-[2,3′-bipyridin]-4-yl)propan-2-ol] | 787 | 5.3 | 1.2 | – | 5.4 | 0.6 | 3.9 | 3 | 3.2 | 2.1
CC(C)(O)c1cc(-c2cnc(Nc3ccnc(-c4cnn(S(=O)(=O)C5CC5)c4)n3)cc2N[C@H]2CC[C@@H](C(C)(C)O)CC2)ncc1F [Example 106, 2-(6′-((2-(1-(Cyclopropylsulfonyl)-1H-pyrazol-4-yl)pyrimidin-4-yl)amino)-5-fluoro-4′-(((1s,4s)-4-(2-hydroxypropan-2-yl)cyclohexyl)amino)-[2,3′-bipyridin]-4-yl)propan-2-ol] | 3710 | 37.8 | 4.1 | 2.6 | 9.6 | 4.1 | 11.2 | – | 8.6 | 6.2

Now from value to compound:

IC50 [1, 6] [nM] | IC50 [1, 7] [nM] | IC50 [2, 8] [nM] | IC50 [2, 9] [nM] | IC50 [3, 10] [nM] | IC50 [3, 11] [nM] | IC50 [4, 12] [nM] | IC50 [4, 13] [nM] | IC50 [5, 14] [nM] | IC50 [5, 15] [nM] | SMILES
61.5 | 0.3 | 0.1 | 0.04 | 0.7 | 0.1 | 0.3 | 0.3 | 0.1 | 0.1 | O=S(=O)(C1CC1)n1cc(-c2nccc(Nc3cc(N[C@H]4CC[C@@H](CO)CC4)c(-c4ccc(CN5CCC(O)CC5)cn4)cn3)n2)cn1 [Example 99, 1-((6′-((2-(1-(Cyclopropylsulfonyl)-1H-pyrazol-4-yl)pyrimidin-4-yl)amino)-4′-(((1s,4s)-4-(hydroxymethyl)cyclohexyl)amino)-[2,3′-bipyridin]-5-yl)methyl) piperidin-4-ol]
575 | 2.2 | 0.7 | 0.4 | 14.4 | 2.1 | 2.4 | 2.1 | 0.9 | 1.7 | CN(C)C[C@H]1CC[C@@H](Nc2cc(Nc3ccnc(-c4cnn(S(=O)(=O)C5CC5)c4)n3)ncc2-c2cc(N3CCC(F)(F)CC3)ccn2)CC1 [Example 101, N^6′-(2-(1-(Cyclopropylsulfonyl)-1H-pyrazol-4-yl)pyrimidin-4-yl)-4-(4,4-difluoropiperidin-1-yl)-N^4′-((1s,4s)-4-((dimethylamino)methyl)cyclohexyl)-[2,3′-bipyridine]-4′,6′-diamine]
> 10000 | 21.3 | 1 | 0.7 | 29.9 | 8.2 | 9.1 | 4.6 | – | 2.8 | C[C@]1(O)CC[C@@H](Nc2cc(Nc3ccnc(-c4cnn(S(=O)(=O)C5CC5)c4)n3)ncc2-c2cc(N3CCC(F)(F)CC3)ccn2)CC1 [Example 102, (1s,4s)-4-((6′-((2-(1-(Cyclopropylsulfonyl)-1H-pyrazol-4-yl)pyrimidin-4-yl)amino)-4-(4,4-difluoropiperidin-1-yl)-[2,3′-bipyridin]-4′-yl)amino)-1-methylcyclohexan-1-ol]
327 | 0.4 | 0.2 | 0.2 | 1.8 | 0.1 | 0.5 | 0.1 | 0.4 | 0.3 | CN(C)C[C@H]1CC[C@@H](Nc2cc(Nc3ccnc(-c4cnn(S(=O)(=O)C5CC5)c4)n3)ncc2-c2cc(C(C)(C)O)c(F)cn2)CC1 [Example 107, 2-(6′-((2-(1-(Cyclopropylsulfonyl)-1H-pyrazol-4-yl)pyrimidin-4-yl)amino)-4′-(((1s,4s)-4-((dimethylamino)methyl)cyclohexyl)amino)-5-fluoro-[2,3′-bipyridin]-4-yl)propan-2-ol]
